± gives the standard deviation of the averaged measurements.
Assays:
UT-SCC-24A = test: relative IC50 (midpoint of the fitted curve; maximal inhibition may be below 50%); higher = less potent; details: treatment time: 3 days
Method: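 HNSCC cell lines (500 cells/well, 384-well) were cultured on plastic, on top of (2D) or embedded (3D) in Matrigel or human leiomyoma matrix Myogel (500 ug/mL; Myogel 3D mixed with rat collagen I). Cells were treated for 3 days with 5 ten-fold concentrations of each drug, and viability was read by CellTiter-Glo. Viability was normalised to DMSO (0% inhibition) and 100 uM benzethonium chloride (100% inhibition) controls and fitted with the FIMM DSRT pipeline to give IC50 (nM), maximal % inhibition and the drug sensitivity score (DSS). Suffixes _1/_2/_3 on drug names are replicates.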

UT-SCC-40 = test: maximal % inhibition of viability relative to DMSO; higher = stronger effect; details: treatment time: 3 days
Method: (§1)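 HNSCC cell lines (500 cells/well, 384-well) were cultured on plastic, on top of (2D) or embedded (3D) in Matrigel or human leiomyoma matrix Myogel (500 ug/mL; Myogel 3D mixed with rat collagen I). Cells were treated for 3 days with 5 ten-fold concentrations of each drug, and viability was read by CellTiter-Glo. Viability was normalised to DMSO and benzethonium chloride controls and fitted with the FIMM DSRT pipeline to give IC50 (nM), maximal % inhibition and DSS. Suffixes _1/_2/_3 are replicates. Only inhibition-mode (IC50) fits are kept.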

UT-SCC-42B [1] = test: as above; details: treatment time: 3 days
Method: as §1

UT-SCC-8 [2] = test: as above; details: treatment time: 3 days
Method: as §1

UT-SCC-73 [3] = test: as above; details: treatment time: 3 days
Method: as §1

UT-SCC-81 [4] = test: as above; details: treatment time: 3 days
Method: as §1

UT-SCC-44 [5] = test: as above; details: treatment time: 3 days
Method: as §1

UT-SCC-24B [6] = test: as above; details: treatment time: 3 days
Method: as §1

UT-SCC-42A = test: as above; details: treatment time: 3 days
Method: as §1

UT-SCC-42B [7] = test: relative IC50 (midpoint of the fitted curve; maximal inhibition may be below 50%); higher = less potent; details: treatment time: 3 days
In short: (§2)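 Three growth formats were used for HPV-negative HNSCC cell lines in 384-well plates at 500 cells/well: bare plastic, wells coated with Matrigel or Myogel (500 µg/mL), and embedding in Matrigel or Myogel plus rat collagen I. Compounds were added at five 10-fold concentrations, and after 3 days CellTiter-Glo 2.0 luminescence was recorded and normalised to vehicle (0.1% DMSO) and cell-killing control wells. IC50, maximal inhibition and drug sensitivity score came from percent-inhibition dose–response fitting in the FIMM pipeline.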

UT-SCC-8 [8] = test: as above; details: culture condition: embedded in Myogel + collagen I; treatment time: 3 days
In short: as §2

UT-SCC-73 [9] = test: as above; details: culture condition: plastic 2D (no matrix); treatment time: 3 days
In short: as §2

UT-SCC-81 [10] = test: as above; details: culture condition: embedded in Myogel + collagen I; treatment time: 3 days
In short: as §2

UT-SCC-44 [11] = test: as above; details: treatment time: 3 days
In short: as §2

UT-SCC-106A = test: as above; details: treatment time: 3 days
In short: as §2

UT-SCC-24B [12] = test: as above; details: treatment time: 3 days
In short: as §2

UT-SCC-28 = test: as above; details: culture condition: embedded in Matrigel; treatment time: 3 days
In short: as §2

[13] = culture condition: embedded in Myogel + collagen I
[14] = culture condition: on top of Matrigel
[15] = culture condition: on top of Myogel
[16] = culture condition: plastic 2D (no matrix)
[17] = culture condition: embedded in Matrigel

With `C#Cc1cccc(Nc2ncnc3cc(OCCOC)c(OCCOC)cc23)c1` [Erlotinib] the “relative IC50” value (UT-SCC-24A; [13]) was 1.56 µM, the “relative IC50” value (UT-SCC-24A; [14]) was 0.86 µM and the “relative IC50” value (UT-SCC-24A; [15]) was over 9.89 µM. The “relative IC50” value (UT-SCC-24A; [16]) was 0.855 µM, the “maximal % inhibition of viability” value (UT-SCC-40; [17]) was 18.6 ± 8.3% and the “maximal % inhibition of viability” value (UT-SCC-40; [13]) was 11.2 ± 9.4%. For the same molecule, the “maximal % inhibition of viability” value (UT-SCC-40; [14]) was 7.93 ± 2.4%, the “maximal % inhibition of viability” value (UT-SCC-40; [15]) was 7.8 ± 4.5% and the “maximal % inhibition of viability” value (UT-SCC-40; [16]) was 9.97 ± 3.5%. For the same molecule, the “maximal % inhibition of viability” value (UT-SCC-42B [1]; [17]) was 36.7 ± 12%, the “maximal % inhibition of viability” value (UT-SCC-42B [1]; [14]) was 13.7 ± 13% and the “maximal % inhibition of viability” value (UT-SCC-42B [1]; [15]) was 4.07 ± 4.7%. The “maximal % inhibition of viability” value (UT-SCC-42B [1]; [16]) was 4.5 ± 0.98%, the “maximal % inhibition of viability” value (UT-SCC-8 [2]; [17]) was 67.3 ± 28% and the “maximal % inhibition of viability” value (UT-SCC-8 [2]; [13]) was 14.7 ± 22%. The “maximal % inhibition of viability” value (UT-SCC-8 [2]; [14]) was 55.5 ± 29%, the “maximal % inhibition of viability” value (UT-SCC-8 [2]; [15]) was 21.4 ± 0.72% and the “maximal % inhibition of viability” value (UT-SCC-8 [2]; [16]) was 40.5 ± 14%. The “maximal % inhibition of viability” value (UT-SCC-73 [3]; [17]) was 11.2 ± 8.1%, the “maximal % inhibition of viability” value (UT-SCC-73 [3]; [13]) was 13.6 ± 19% and the “maximal % inhibition of viability” value (UT-SCC-73 [3]; [14]) was 13.9 ± 3.5%. The “maximal % inhibition of viability” value (UT-SCC-73 [3]; [15]) was 9.4 ± 5.2%, the “maximal % inhibition of viability” value (UT-SCC-73 [3]; [16]) was 5.97 ± 2.2% and the “maximal % inhibition of viability” value (UT-SCC-81 [4]; [17]) was 77.1 ± 4.2%. For the same molecule, the “maximal % inhibition of viability” value (UT-SCC-81 [4]; [13]) was 6.5 ± 5.1%, the “maximal % inhibition of viability” value (UT-SCC-81 [4]; [14]) was 62 ± 6.1% and the “maximal % inhibition of viability” value (UT-SCC-81 [4]; [15]) was 15.7 ± 4.9%. For the same molecule, the “maximal % inhibition of viability” value (UT-SCC-81 [4]; [16]) was 12.4 ± 3.9%, the “maximal % inhibition of viability” value (UT-SCC-44 [5]; [17]) was 6.07 ± 5.3% and the “maximal % inhibition of viability” value (UT-SCC-44 [5]; [13]) was 10 ± 9.8%. The “maximal % inhibition of viability” value (UT-SCC-44 [5]; [14]) was 14.1 ± 8.5%, the “maximal % inhibition of viability” value (UT-SCC-44 [5]; [15]) was 20.4 ± 11% and the “maximal % inhibition of viability” value (UT-SCC-44 [5]; [16]) was 15.9 ± 13%. The “maximal % inhibition of viability” value (UT-SCC-24B [6]; [17]) was 76.5 ± 0.95%, the “maximal % inhibition of viability” value (UT-SCC-24B [6]; [13]) was 67.5 ± 6.2% and the “maximal % inhibition of viability” value (UT-SCC-24B [6]; [14]) was 74.4 ± 3%. For the same molecule, the “maximal % inhibition of viability” value (UT-SCC-24B [6]; [15]) was 59.3 ± 5%, the “maximal % inhibition of viability” value (UT-SCC-24B [6]; [16]) was 80.9 ± 1.6% and the “maximal % inhibition of viability” value (UT-SCC-42A; [17]) was 23.9 ± 23%. For the same molecule, the “maximal % inhibition of viability” value (UT-SCC-42A; [13]) was 9.7 ± 4.9%, the “maximal % inhibition of viability” value (UT-SCC-42A; [14]) was 32.1 ± 18% and the “maximal % inhibition of viability” value (UT-SCC-42A; [15]) was 12.6 ± 2.3%. For the same molecule, the “maximal % inhibition of viability” value (UT-SCC-42A; [16]) was 20.6 ± 17%, the “relative IC50” value (UT-SCC-42B [7]; [17]) was 2.11 µM and the “relative IC50” value (UT-SCC-42B [7]; [15]) was over 9.89 µM. For the same molecule, the “relative IC50” value (UT-SCC-42B [7]; [16]) was over 9.89 µM, the “relative IC50” value (UT-SCC-8 [8]) was over 9.89 µM and the “relative IC50” value (UT-SCC-73 [9]) was over 9.89 µM. For the same molecule, the “relative IC50” value (UT-SCC-81 [10]) was over 9.89 µM, the “relative IC50” value (UT-SCC-44 [11]; [17]) was over 9.89 µM and the “relative IC50” value (UT-SCC-44 [11]; [14]) was over 9.89 µM. The “relative IC50” value (UT-SCC-106A; [17]) was 2.07 µM, the “relative IC50” value (UT-SCC-106A; [15]) was over 9.89 µM and the “relative IC50” value (UT-SCC-24B [12]; [17]) was 0.522 µM. For the same molecule, the “relative IC50” value (UT-SCC-24B [12]; [14]) was 0.591 µM, the “relative IC50” value (UT-SCC-24B [12]; [15]) was 2.49 µM and the “relative IC50” value (UT-SCC-24B [12]; [16]) was 0.227 µM. For the same molecule, the “relative IC50” value (UT-SCC-28) was over 9.89 µM.

Source: the supplement of paper PMC7017272
